Values quoted from earlier work in patent US20220168408A1, “MULTI-VALENT IMMUNOTHERAPY COMPOSITION AND METHODS OF USE FOR TREATING WT1-POSITIVE CANCERS” (SLSG LIMITED LLC, priority 2019, published 2022).

System: CD4+ and CD8+ responses
Conditions: according to data from preclinical and phase 1 studies

## SGQAYMFPNAPYLPSCLES (Mutated Homo sapiens) [WT1-122A1 long]
  stimulation of CD4+ and CD8+ responses: stimulate both CD4+ and CD8+ responses
